Laboratory results as given in US7049311B1, “Pyrrolbenzodiazepines” (Spirogen Limited, priority 1998, dated 2006).
Where two headings read alike, the source gives them in different places.

Columns and labels:
[1] = system: human ovarian carcinoma cell line A2780; experiment: Cytotoxicity in A2780 (Example 9); assay type: cell-based
Method: (§1) Relative to the parental line, the A2780cisR subline is known to have elevated GSH levels, an increased level of repair of DNA-cisplatin adducts, and a decreased ability to uptake cisplatin (M. Smellie, et al., Br. J. Cancer, 1994, 70, 48).
(§2) The results, which were obtained by incubating the cells with the compounds for 96 hours at 37° C., and assessing the cell number using Sulforhodamine B, are presented in the table below: […]

A2780cisR = experiment: Cytotoxicity in cisplatin-resistant A2780cisR (Example 9); assay type: cell-based, human; conditions: for IC50: Homo sapiens, A2780cisR, 96 h
Method: as §1, §2

UACC-62 = experiment: NCI in vitro cytotoxicity screen; assay type: cell-based
How it was run: (§3)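 Human tumour cells were seeded at 5000-40,000 per well and preincubated 24 hours at 37° C. Compounds were added at five 10-fold dilutions (10^−4 to 10^−8 […]) for 48 hours continuous exposure in 5% CO2. Viability was measured by sulphorhodamine B protein staining and optical density, giving LC50 values.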

NCI-H460 = experiment: NCI in vitro cytotoxicity screen; assay type: cell-based; conditions: Homo sapiens; NCI-H460 (Lung), 48 hour exposure, SRB assay; read-out: LC50 (the source's name)
How it was run: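 SRB read-out after 48 h continuous compound exposure; LC50 = dose killing half the cells. Cells plated 5000-40,000/well, 24 h preincubation at 37° C. Five 10-fold concentrations, 10^−4 to 10^−8 […].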

SNB-75 = experiment: NCI in vitro cytotoxicity screen; assay type: cell-based; conditions: Homo sapiens, SNB-75, 48 h, read-out: LC50
How it was run: as §3

MALME-3M = experiment: NCI in vitro cytotoxicity screen; assay type: cell-based
How it was run: as §3

HCC-2998 = experiment: NCI in vitro cytotoxicity screen; assay type: cell-based; conditions: Homo sapiens, HCC 2998, 48 h, read-out: LC50
How it was run: as §3

SKOV-3 = experiment: Ovarian carcinoma cytotoxicity assay; assay type: cell-based; conditions: Homo sapiens, SK-OV-3, 96 h, read-out: IC50 Skov3
How it was run: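 Cells attached overnight, then read 96 hours later by sulphorhodamine B staining of TCA-fixed cells, with absorbance at 540 nm. IC50 taken from concentration versus % absorbance relative to untreated wells; cisR lines are cisplatin-resistant.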

[2] = system: human tumour cells cultivated in hollow fibres implanted in mice; experiment: NCI Hollow Fibre Assay; assay type: in vivo
Source text: The Biological testing Branch of the Developmental Therapeutics Program of the NCI has adopted a preliminary in vivo screening tool for assessing the potential anticancer activity of compounds identified by the large scale in vitro cell screen. For these assays, human tumour cells are cultivated in polyvinylidene (PVDF) hollow fibres, and a sample of each cell line is implanted into each of two physiologic compartments (intraperitoneal and subcutaneaous) in mice. Each test mouse received a total of 6 fibres (3 intraperitoneally and 3 subcutaneously) representing 3 distinct cancer cell lines. These mice are treated with potential antitumour compounds at each of 2 test doses by the intraperitoneal route using a QD×4 treatment schedule. Vehicle controls consist of 6 mice receiving the compound diluent only. The fibre cultures are collected on the day following the last day of treatment. To assess anticancer effects, the viable cell mass is determined for each of the cell lines using a formazyn dye (MTT) conversion assay. From this, the % T/C can be calculated using the average optical density of compound treated samples divided by the average optical; density of the vehicle controls. In addition, the net increase in cell mass can be determined for each sample, as a sample of fibre cultures are assessed for viable cell mass on the day of implantation into mice. Thus, the cytostatic and cytocidal capacities of the test compound can be assessed.
Generally, each compound is tested against a minimum of 12 human cancer cell lines. This represents a total of 4 experiments since each experiment contains 3 cell lines. The data are reported as % T/C for each of the 2 compound doses against each of the cell lines with separate values calculated for the intraperitoneal and subcutaneous samples.
Compounds are selected for further in vivo testing in standard subcutaneous xenograft models on the basis of several hollow fibre assay criteria. These include: (1) a % T/C of 50 or less in 10 of the 48 possible test combinations (12 cell lines×2 sites×2 Compound doses); (2) activity at a distance (intraperitoneal drug/subcutaneous culture) in a minimum of 4 of the 24 possible combinations; and/or (3) a net cell kill of 1 or more of the cell lines in either implant site. To simplify evaluation, a points system has been adopted which allows rapid evaluation of the activity of a given compound. For this, a value of 2 is assigned for each compound dose which results in a 50% or greater reduction in viable cell mass. The intraperitoneal and subcutaneous samples are scored separately so that criteria (1) and (2) can be evaluated. Compounds with a combined IP+SC score of 20, a SC score of 8 or a net cell kill of one or more cell lines are referred for xenograft testing. […] In addition to these criteria, other factors (e.g. unique structure, mechanism of action) may result in referral of a compound for xenograft testing without the compound meeting these criteria.

## C=C1C[C@H]2C=Nc3cc(OCCCOc4cc5c(cc4OC)C(=O)N4CC(=C)C[C@H]4C=N5)c(OC)cc3C(=O)N2C1 [UP2001 (80)]
[1]; A2780 cell line
  fold increase in cytotoxicity compared to DSB-120: 320 fold
[1]; Homo sapiens, A2780, 96 h, read-out: IC50 A2780
  IC50: 0.023 nM
A2780cisR; A2780cisR cell line
  fold more potent than DSB-120: ~9,000 fold
A2780cisR; read-out: IC50 A2780cisR
  IC50: 0.024 nM
A2780cisR; read-out: IC50 A2780cis^a
  IC50: 0.024 nM
UACC-62; Homo sapiens, UACC-62, 48 h, read-out: LC50, UACC-62 (Melanoma), 48 hour exposure, SRB assay
  CC50: 70 nM
UACC-62; read-out: LC50, UACC-62 (Melanoma), 48 hour exposure, SRB assay
  CC50: 77 nM
NCI-H460
  CC50: 2700 nM
SNB-75
  CC50: 7500 nM
MALME-3M; Homo sapiens, Malme-3M, 48 h, read-out: LC50, MALME-3M (Melanoma), 48 hour exposure, SRB assay
  CC50: 80 nM
MALME-3M; read-out: LC50, MALME-3M (Melanoma), 48 hour exposure, SRB assay
  CC50: 73 nM
HCC-2998
  CC50: 99 nM
SKOV-3
  IC50: 9.1 nM
[2]; combined IP+SC score
  Total score: 54
[2]; intraperitoneal fibres, 2 points per dose giving 50% or greater reduction in viable cell mass
  IP score: 40
[2]; subcutaneous fibres, 2 points per dose giving 50% or greater reduction in viable cell mass
  SC score: 14
